In patent US6784175B2, “Use of substituted 1-amino-5-phenylpentane-3-ol and/or 1-amino-6-phenylhexane-3-ol compounds as medicaments” (Gruenenthal GmbH, priority 2000, dated 2004):
Structures can show the parent of a compound that is named as a salt.

Test system: (+)-MK801 binding site of the ionotropic NMDA receptor
Test: (3H)-(+)-MK801 receptor bonding test on rat cerebral membrane homogenates
Details: 1 nmol/l (3H)-(+)-MK801, rat brain membrane homogenate; for Percentage inhibition of (3H)-(+)-MK801 binding at 10 μM: 10 μmol/l compound, triple determinations; for Ki: calculated from IC50 by Cheng-Prusoff equation
Experimental: Research to determine the NMDA antagonistic effect of each compound in general formula I was carried out on cerebral membrane homogenates (homogenate of rat brain without cerebellum, pons and medulla oblongata taken from male Wistar rats (Charles River, Sulzfeld, Germany)).
For this purpose, after separating the cerebellum, pons and medulla oblongata, freshly prepared rat brains were macerated in 50 mmol/l of tris/HCl (pH 7.7) with a Polytron homogeniser (model PT3000, Kinematika AG, Littau, Switzerland) at 6000 revolutions per minute (rpm) for 1 minute with ice cooling and centrifuged for 15 minutes at 4° C. and 60,000 g. After decanting and discarding the supernatant, again placing in 50 mmol/l of tris/HCl (pH 7.7) and macerating the membrane pellet with a homogeniser at 2000 rpm for 1 minute, it was centrifuged again for 15 minutes at 4° C. and 60,000 g. The supernatant was again discarding and the membrane pellet homogenised (2000 rpm for 1 minute) in 50 mmol/l of tris/HCl (pH 7.7) and frozen in aliquots at −70° C.
For the receptor bonding test, each aliquot was defrosted and then centrifuged for 15 minutes at 4° C. and 60,000 g. After decanting and discarding the supernatant, the membrane pellet was taken up with bonding test buffer and homogenised (2000 rpm for 1 minute). The bonding test buffer was 5 mmol/l tris/HCl (pH 7.7) supplemented with 30 μmol/l of glycine and 100 μmol/l of glutamic acid.
1 nmol/l of (^3H)-(+)-MK801 ((5R, 10S)-(+)-5-methyl-10,11-dihydro-5H-dibenzo(a,d)cycloheptane-5,10-imine was used as a radioactively marked ligand (NET-972, NEN, Cologne Germany). The proportion of unspecific bonding was determined in the presence of 10 μmol/l of non-radioactively marked (+)-MK801 (RBI/Sigma, Deisenhofen, Germany). In further batches, each of the compounds of general formula I were added in series of concentrations and the displacement of the radioactive ligand out of its specific bond to the NMDA receptor determined. All the batches were subjected to triple determinations. The batches were each incubated for 40 minutes at 25° C. in a water bath and then harvested for determination of the radioactive ligand bound to the cerebral membrane homogenate by means of filtration through glass-fibre filters (GF/B) (Whatman GF/B, Hassel, Munich, Germany). The radioactivity retained by the glass-fibre filter discs was measured in a β counter (Packard TRI-CARB Liquid Scintillation Analyser 2000CA, Packard Instrument, Meriden, Conn. 06450, USA) after adding a scintillator (“Ready Protein” scintillator, Beckmann Coulter GmhH, Krefeld, Germany).
The percentage inhibition of the specific bonding of the ligand (^3H)-(+)-MK801 in the presence of 10 μmol/l of each compound of general formula I resulting from the triple batches is used as a measure of the affinity of the compound for the (+)-MK801 binding site of the ionotropic NMDA receptor. From batches with concentration series of these compounds of general formula I, the IC50 values (concentration of substituted compounds with 50% displacement of radioactive ligand out of its specific bond) were calculated in accordance with the law of mass action using non-linear regression. From these IC50 values, the Kj values were calculated in accordance with the Cheng-Prusoff equation (Y. Cheng, W. H. Prusoff, 1973, Biochem. Pharmacol., 22, pp 3099-3108).

SMILES | Percentage inhibition of (3H)-(+)-MK801 binding at 10 μM [%] | Ki [µM] | Percentage inhibition of (3H)-(+)-MK801 binding at 10 μM (hydrochloride, 10 µM) [%] | Ki (hydrochloride) [µM]
CN(C)C(c1ccccc1F)C1CCCCC1(O)CCc1ccc(F)cc1.Cl (centres unmarked) [Example 17, 2-[dimethylamino-(2-fluorophenyl)methyl]-1-[2-(4-fluorophenyl)ethyl]cyclohexanol, hydrochloride] | 54 | 5.8 | – | –
CN(C)C(c1ccccc1F)C1CCCCC1(O)CCc1cccc(Cl)c1.Cl (centres unmarked) [Example 21, 1-[2-(3-chlorophenyl)ethyl]-2-(dimethylamino-(2-fluorophenyl)methyl]cyclohexanol, hydrochloride] | 90 | 2.1 | – | –
Cc1ccccc1C(C1CCCCC1(O)CCc1ccccc1Cl)N1CCCCC1.Cl (centres unmarked) [Example 25, 1-[2-(2-chlorophenyl)ethyl]-2-(piperidine-1-yl-o-tolylmethyl)cyclohexanol, hydrochloride] | 89 | 1.4 | – | –
Cc1ccccc1CCC1(O)CCCCC1C(c1ccccc1F)N(C)C.Cl (centres unmarked) [Example 43, 2-[dimethylamino-(2-fluorophenyl)methyl]-1-(2-o-tolylethyl)cyclohexanol, hydrochloride] | 92 | 1.4 | – | –
CN(C)C(c1ccc(F)cc1Cl)C1CCCCC1(O)CCc1ccccc1F.Cl (centres unmarked) [Example 41, 2-[(2-chloro4-fluorophenyl)dimethylaminomethyl]-1-[2-(2-fluorophenyl)ethyl]cyclohexanol, hydrochloride] | 94 | 1.2 | – | –
Cc1cccc(C(C2CCCCC2(O)CCc2ccccc2Cl)N(C)C)c1.Cl (centres unmarked) [Example 20, 1-[2-(2-chlorophenyl)ethyl]-2-(dimethylamino-m-tolylmethyl)cyclohexanol, hydrochloride] | 62 | 4.3 | – | –
Cc1ccccc1CCC1(O)CCCCC1C(c1ccccc1C)N(C)C.Cl (centres unmarked) [Example 39, 2-(dimethylamino-o-tolylmethyl]-1-(2-o-tolylethyl)cyclohexanol, hydrochloride] | 90 | 1.4 | – | –
Cc1ccccc1C(C1CCCCC1(O)CCc1ccccc1Cl)N1CCOCC1.Cl (centres unmarked) [Example 24, 1-[2-(2-chlorophenyl)ethyl]-2-(morpholine-4-yl-o-tolylmethyl)cyclohexanol, hydrochloride] | 48 | 3.7 | – | –
Cc1ccccc1C(C1CCCCC1(O)CCc1ccccc1Cl)N(C)C (single isomer, unassigned; (+)) [Example 49, (+)-15-1-[2-(2-chlorophenyl)ethyl]-2-(dimethylamino-o-tolylmethylcyclohexanol), hydrochloride] | – | – | 93 | 1.3
Cc1ccccc1CCC1(O)CCCCC1C(c1ccccc1Br)N(C)C.Cl (centres unmarked) [Example 38, 2-[(2-bromophenyl)dimethylaminomethyl]-1-(2-o-tolylethyl)cyclohexanol, hydrochloride] | 93 | 2.3 | – | –
CN(C)C(c1ccc(F)cc1Cl)C1CCCCC1(O)CCc1ccccc1Cl.Cl (centres unmarked) [Example 42, 2-[(2-chloro4-fluorophenyl)dimethylaminomethyl]-1-[2-(2-chlorophenyl)ethyl]cyclohexanol, hydrochloride] | 85 | 2 | – | –
CN(C)C(c1ccccc1C(F)(F)F)C1CCCCC1(O)CCc1ccccc1.Cl (centres unmarked) [Example 27, 2-[dimethylamino-(2-trifluoromethylphenyl)methyl]-1-phenethylcyclohexanol, hydrochloride] | 67 | 4.2 | – | –
CN(C)C(c1ccccc1F)C1CCCCC1(O)CCc1ccccc1F.Cl (centres unmarked) [Example 29, 2-[dimethylamino-(2-fluorophenyl)methyl]-1-[2-(2-fluorophenyl)ethyl]cyclohexanol, hydrochloride] | 104 | 0.3 | – | –
CN(C)C(c1ccccc1Cl)C1CCCCC1(O)CCc1ccccc1Cl.Cl (centres unmarked) [Example 33, 2-[(2-chlorophenyl)dimethylaminomethyl]-1-[2-(2-chlorophenyl)ethyl]cyclohexanol, hydrochloride] | 93 | 0.6 | – | –
COc1ccccc1C(C1CCCCC1(O)CCc1ccccc1F)N(C)C.Cl (centres unmarked) [Example 28, 2-[dimethylamino-(2-methoxyphenyl)methyl]-1-[2-(2-fluorophenyl)ethyl]cyclohexanol, hydrochloride] | 82 | 2.5 | – | –
Cc1ccccc1C(C1CCCCC1(O)CCc1ccc(F)cc1)N(C)C.Cl (centres unmarked) [Example 18, 2-(dimethylamino-o-tolylmethyl)-1-[2-(4-fluorophenyl)ethyl]cyclohexanol, hydrochloride] | 54 | 6.1 | – | –
CN(C)C(c1cccc(F)c1)C1CCCCC1(O)CCc1ccccc1Cl.Cl (centres unmarked) [Example 22, 1-[2-(2-chlorophenyl)ethyl]-2-(dimethylamino-(3-fluorophenyl)methyl]cyclohexanol, hydrochloride] | 74 | 3 | – | –
CN(C)C(c1ccccc1Cl)C1CCCCC1(O)CCCc1ccccc1.Cl (centres unmarked) [Example 36, 2-[(2-chlorophenyl)dimethylaminomethyl]-1-(3-phenylpropyl)cyclohexanol, hydrochloride] | 85 | 1.9 | – | –
Cc1ccccc1C(C1CCCCC1(O)CCc1cccc(Cl)c1)N(C)C.Cl (centres unmarked) [Example 16, 1-[2-(3-chlorophenyl)ethyl]-2-(dimethylamino-o-tolylmethyl)cyclohexanol, hydrochloride] | – | – | 92 | 1.9
CN(C)C(c1ccccc1C(F)(F)F)C1CCCCC1(O)CCc1ccccc1F.Cl (centres unmarked) [Example 47, 2-[dimethylamino-(2-trifluoromethylphenyl)methyl]-1-[2-(2-fluorophenyl)ethyl]cyclohexanol, hydrochloride] | 90 | 1.4 | – | –
CN(C)C(c1ccccc1C(F)(F)F)C1CCCCC1(O)CCc1ccccc1Cl.Cl (centres unmarked) [Example 46, 1-[2-(2-chlorophenyl)ethyl]-2-[dimethylamino-(2-trifluoromethylphenyl)methyl]cyclohexanol, hydrochloride] | 79 | 1.9 | – | –
CN(C)C(c1ccccc1Br)C1CCCCC1(O)CCc1ccccc1F.Cl (centres unmarked) [Example 34, 2-[(2-bromophenyl)dimethylaminomethyl]-1-[2-(2-fluorophenyl)ethyl]cyclohexanol, hydrochloride] | 95 | 0.4 | – | –
CN(C)C(c1ccccc1)C1CCCCC1(O)CCCc1ccccc1.Cl (single isomer, unassigned; (+)) [Example 51, (+)-2-(dimethylaminophenylmethyl)-1-(3-phenylpropyl)cyclohexanol, hydrochloride] | – | – | 80 | 2.3
Cc1ccccc1CCC1(O)CCCCC1C(c1ccccc1)N(C)C.Cl (centres unmarked) [Example 37, 2-(dimethylaminophenylmethyl)-1-(2-o-tolylethyl)cyclohexanol, hydrochloride] | 77 | 1.8 | – | –
Cc1ccccc1C(C1CCCCC1(O)CCc1ccccc1F)N1CCCC1.Cl (centres unmarked) [Example 31, 1-[2-(2-fluorophenyl)ethyl]-2-(pyrrolidine-1-yl-o-tolylmethyl)cyclohexanol, hydrochloride] | 99 | 0.1 | – | –
